From patent US12668589B2, “N-formamidopyrazoline derivative as P2X3 receptor antagonist and use thereof” (HANGZHOU WESTAN PHARMACEUTICAL TECHNOLOGY CO., LTD, priority 2020, dated 2026) come the findings set out here.

Bounds are passed on as bounds.

One assay concerns the target T1, human P2X3 (Homo sapiens, UniProt P56373).
T1 sequence (P56373 1-397): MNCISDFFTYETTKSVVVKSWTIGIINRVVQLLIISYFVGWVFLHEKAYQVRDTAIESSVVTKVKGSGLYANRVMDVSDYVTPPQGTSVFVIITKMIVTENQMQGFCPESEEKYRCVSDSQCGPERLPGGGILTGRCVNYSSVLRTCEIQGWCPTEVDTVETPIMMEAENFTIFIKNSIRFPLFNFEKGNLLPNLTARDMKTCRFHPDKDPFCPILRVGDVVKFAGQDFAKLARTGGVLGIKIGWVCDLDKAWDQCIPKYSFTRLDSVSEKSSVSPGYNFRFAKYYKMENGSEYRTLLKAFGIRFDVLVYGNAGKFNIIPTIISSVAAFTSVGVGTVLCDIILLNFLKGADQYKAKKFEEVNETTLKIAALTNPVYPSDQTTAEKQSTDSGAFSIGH
Put plainly: cell-based.
Conditions: not given
Regarding `Cc1ccc(C2=NN(C(=O)N[C@H](C)c3cnc(C(F)(F)F)nc3)C[C@@H]2N2CCCC2=O)cc1` [Compound 32, (S)-4-(2-oxopyrrolidin-1-yl)-3-(4-methylphenyl)-N-((R)-1-(2-(trifluoromethyl)pyrimidin-5-yl)ethyl)-4,5-dihydro-1H-pyrazol-1-carboxamide], it took 127 nM to reach half-maximal inhibition (IC50).
The same measure, in the same setting: for `C[C@@H](NC(=O)N1C[C@H](N2CCOCC2=O)C(c2ccc(F)cc2)=N1)c1cnc(C(F)(F)F)nc1` [Compound 33, (S)-4-(3-oxomorpholin-4-yl)-3-(4-fluorophenyl)-N-((R)-1-(2-(trifluoromethyl)pyrimidin-5-yl)ethyl)-4,5-dihydro-1H-pyrazol-1-carboxamide] the value was 254 nM; for `C[C@@H](NC(=O)N1C[C@@H](N2CCOCC2=O)C(c2ccc(F)cc2)=N1)c1cnc(C(F)(F)F)nc1` [Compound 33a, (R)-4-(3-oxomorpholin-4-yl)-3-(4-fluorophenyl)-N-((R)-1-(2-(trifluoromethyl)pyrimidin-5-yl)ethyl)-4,5-dihydro-1H-pyrazol-1-carboxamide], 365 nM.
Same read-out and setting: the figure for `CC(=O)N(C)[C@H]1CN(C(=O)N[C@H](C)c2cnc(C(F)(F)F)nc2)N=C1c1ccc(C)cc1` [Compound 34, (S)-4-(N-methylacetamido)-3-(4-methylphenyl)-N-((R)-1-(2-(trifluoromethyl)pyrimidin-5-yl)ethyl)-4,5-dihydro-1H-pyrazol-1-carboxamide] is 169 nM.
The same measure, in the same setting: for `CC(=O)N(C)[C@@H]1CN(C(=O)N[C@H](C)c2cnc(C(F)(F)F)nc2)N=C1c1ccc(C)cc1` [Compound 34a, (R)-4-(N-methylacetamido)-3-(4-methylphenyl)-N-((R)-1-(2-(trifluoromethyl)pyrimidin-5-yl)ethyl)-4,5-dihydro-1H-pyrazol-1-carboxamide] the value was 231 nM; for `C[C@@H](NC(=O)N1C[C@H](N2CCOCC2=O)C(c2ccc(Cl)cc2)=N1)c1cnc(C(F)(F)F)nc1` [Compound 35, (S)-4-(3-oxomorpholin-4-yl)-3-(4-chlorophenyl)-N-((R)-1-(2-(trifluoromethyl)pyrimidin-5-yl)ethyl)-4,5-dihydro-1H-pyrazol-1-carboxamide], 215 nM; for `C[C@@H](NC(=O)N1C[C@@H](N2CCOCC2=O)C(c2ccc(Cl)cc2)=N1)c1cnc(C(F)(F)F)nc1` [Compound 35a, (R)-4-(3-oxomorpholin-4-yl)-3-(4-chlorophenyl)-N-((R)-1-(2-(trifluoromethyl)pyrimidin-5-yl)ethyl)-4,5-dihydro-1H-pyrazol-1-carboxamide], 451 nM.
The compound `COc1ccc(C2=NN(C(=O)N[C@H](C)c3cnc(C(F)(F)F)nc3)C[C@@H]2N2CCOCC2=O)cc1` [Compound 36, (S)-4-(3-oxomorpholin-4-yl)-3-(4-methoxyphenyl)-N-((R)-1-(2-(trifluoromethyl)pyrimidin-5-yl)ethyl)-4,5-dihydro-1H-pyrazol-1-carboxamide] registered a half-inhibitory concentration (IC50) of 283 nM.
`COc1ccc(C2=NN(C(=O)N[C@H](C)c3cnc(C(F)(F)F)nc3)C[C@H]2N2CCOCC2=O)cc1` [Compound 36a, (R)-4-(3-oxomorpholin-4-yl)-3-(4-methoxyphenyl)-N-((R)-1-(2-(trifluoromethyl)pyrimidin-5-yl)ethyl)-4,5-dihydro-1H-pyrazol-1-carboxamide] returned an IC50 of 422 nM.
For the compound `CC(=O)N1CCN([C@H]2CN(C(=O)N[C@H](C)c3cnc(C(F)(F)F)nc3)N=C2c2ccc(C)cc2)CC1` [Compound 37, (S)-4-(4-acetylpiperazin-1-yl)-3-(4-methylphenyl)-N-((R)-1-(2-(trifluoromethyl)pyrimidin-5-yl)ethyl)-4,5-dihydro-1H-pyrazol-1-carboxamide], the half-inhibitory concentration (IC50) amounted to 3730 nM.
Same read-out and setting: for `Cc1ccc(C2=NN(C(=O)N[C@H](C)c3cnc(C(F)(F)F)nc3)C[C@@H]2N2CCN(C)CC2)cc1` [Compound 38] the value was 2670 nM.
Still for that read-out and setting: the figure for `Cc1ccc(C2=NN(C(=O)N[C@H](C)c3cnc(C(F)(F)F)nc3)C[C@@H]2N2CCOCC2)cc1` [Compound 39, (S)-4-(morpholin-4-yl)-3-(4-methylphenyl)-N-((R)-1-(2-(trifluoromethyl)pyrimidin-5-yl)ethyl)-4,5-dihydro-1H-pyrazol-1-carboxamide] is 6100 nM; for `Cc1ccc(C2=NN(C(=O)N[C@H](C)c3cnc(C(F)(F)F)nc3)C[C@@H]2n2cccn2)cc1` [Compound 42] it is 4910 nM; for `Cc1ncc([C@@H](C)NC(=O)N2C[C@H](N3CCOC3=O)C(c3ccc(Cl)cc3)=N2)cn1` [Compound 43, (S)-4-(2-oxooxazolidin-3-yl)-3-(4-chlorophenyl)-N-((R)-1-(2-methylpyrimidin-5-yl)ethyl)-4,5-dihydro-1H-pyrazol-1-carboxamide] it is 331 nM.
The same measure, in the same setting: for `C[C@@H](NC(=O)N1C[C@H](N2CCCC2=O)C(c2ccc(F)cc2)=N1)c1cnc(Cl)nc1` [Compound 44, (S)-4-(2-oxopyrrolidin-1-yl)-3-(4-fluorophenyl)-N-((R)-1-(2-chloropyrimidin-5-yl)ethyl)-4,5-dihydro-1 H-pyrazol-1-carboxamide] the value was 233 nM.
In turn, `C[C@@H](NC(=O)N1C[C@@H](N2CCCC2=O)C(c2ccc(F)cc2)=N1)c1cnc(Cl)nc1` [Compound 44a, (R)-4-(2-oxopyrrolidin-1-yl)-3-(4-fluorophenyl)-N-((R)-1-(2-chloropyrimidin-5-yl)ethyl)-4,5-dihydro-1H-pyrazol-1-carboxamide] had a half-inhibitory concentration (IC50) of 421 nM.

A further assay addresses T2, human PAR-1 (Homo sapiens, UniProt P25116).
T2 construct: host or cells: HEK293/Ga15 recombinant cell line
T2 sequence (P25116 22-425): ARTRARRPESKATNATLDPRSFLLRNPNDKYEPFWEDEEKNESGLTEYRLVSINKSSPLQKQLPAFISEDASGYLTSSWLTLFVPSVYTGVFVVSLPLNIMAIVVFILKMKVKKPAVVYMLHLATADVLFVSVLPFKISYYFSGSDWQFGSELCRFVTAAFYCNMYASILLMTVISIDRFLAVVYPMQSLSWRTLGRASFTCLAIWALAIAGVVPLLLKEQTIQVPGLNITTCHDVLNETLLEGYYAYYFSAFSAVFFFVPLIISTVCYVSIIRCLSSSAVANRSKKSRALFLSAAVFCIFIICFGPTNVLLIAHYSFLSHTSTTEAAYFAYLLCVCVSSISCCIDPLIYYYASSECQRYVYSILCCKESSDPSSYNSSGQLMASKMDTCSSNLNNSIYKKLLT
Put plainly: Inhibitory activity against PAR-1, calcium ion flux fluorescence method (FLIPR). The class given is cell-based. Particulars: HEK293/Ga15 cells expressing human PAR-1, TFLLR-NH2 10 μM, starting concentration 30 μM. On the procedure:
The inhibitory activity of the title compounds against human PAR-1 was determined by a calcium ion flux fluorescence method (an FLIPR method). The method thereof was reported in the literature of Zhong et al. [Zhong et al. J Biomol Struct Dyn, 2017, 35(13):2853].
An HEK293/Ga15 recombinant cell line (HD Biosciences, Shanghai, China) stably expressing human PAR-1 was cultured in a DMEM (Thermo Fisher Scientific, Shanghai) culture solution (containing 10% calf serum, 800 μg/mL G418). Incubator conditions were 37° C. and an air humidity with 5% CO2.
On the first day, 20 μL per well of PAR-1 cells at a concentration of 4E+5 cells/mL were seeded in a 384-well analysis plate (Corning 3712). […] On the second day, a culture solution in each well was poured off. Then, 20 μL of 1×loading dye (2 μM Fluo-8 AM in 1×HBSS with 20 mM HEPES, 1 mM Probenecid, 0.025% Pluronic F-127 assay buffer) was added in each well. The cell analysis plate was cultured for 1 hour at a room temperature.
The compounds were dissolved into 100% DMSO to prepare a 10 mM stock solution, which was stored at −20° C. On the day of use, the compound stock solution was thawed at a room temperature. Each compound was subjected to 1:3 serial dilution at 11 concentration points with a DMEM culture solution with a starting concentration of 30 μM. Each compound was subjected to double dilution for testing. A positive control compound was diluted in the same way with SCH79797 with a starting concentration of 30 μM.
The cell analysis plate was placed in a FLIPR instrument (Molecular Device) and 10 μL of compounds (3× of a final concentration) in a compound plate was added to corresponding wells of the cell analysis plate. After 10 minutes, 10 μL of TFLLR-NH2 (TFA) (a final concentration of 10 μM) was added to each well to stimulate generation of intracellular calcium flux signals. Ca^++-dependent fluorescence signals were continuously monitored at excitation wavelengths of 470/495 nm and emission wavelengths of 515/575 nm to analyze the inhibitory activity of the compounds.
Data were collected and analyzed by using an FLIPR program. The inhibitory (or agonistic) activity of the compounds at each concentration was assessed by fluorescence peaks. IC50 values of the compounds were calculated by using EXCEL and PRISM programs.
Regarding `Cc1ccc(C2=NN(C(=O)N[C@H](C)c3ccc(C(F)(F)F)nc3)C[C@@H]2N2CCOCC2=O)cc1` [Compound 1, (S)-4-(3-oxomorpholin-4-yl)-3-(4-methylphenyl)-N-((R)-1-(6-(trifluoromethyl)pyridin-3-yl)ethyl)-4,5-dihydro-1H-pyrazol-1-carboxamide], the IC50 was over 30000 nM.
Same read-out and setting: for `Cc1ccc(C2=NN(C(=O)N[C@H](C)c3ccc(C(F)(F)F)cc3)C[C@@H]2N2CCOCC2=O)cc1` [Compound 20] the value was over 30000 nM; for `Cc1ccc(C2=NN(C(=O)N[C@H](C)c3ccc(C(F)(F)F)nn3)C[C@@H]2N2CCOCC2=O)cc1` [Compound 30, (S)-4-(3-oxomorpholin-4-yl)-3-(4-methylphenyl)-N-((R)-1-(6-(trifluoromethyl)pyridazin-3-yl)ethyl)-4,5-dihydro-1H-pyrazol-1-carboxamide], over 30000 nM; for `Cc1ccc(C2=NN(C(=O)N[C@H](C)c3ccc(Cl)nn3)C[C@@H]2N2CCOC2=O)cc1` [Compound 31], over 30000 nM.
In the case of `Cc1ccc(C2=NN(C(=O)N[C@H](C)c3cnc(C(F)(F)F)nc3)C[C@@H]2N2CCOC2=O)cc1` [Compound 40, (S)-4-(2-oxooxazolidin-3-yl)-3-(4-methylphenyl)-N-((R)-1-(2-(trifluoromethyl)pyrimidin-5-yl)ethyl)-4,5-dihydro-1H-pyrazol-1-carboxamide], the 50% inhibitory concentration (IC50) is over 30000 nM.
Still for that read-out and setting: for `Cc1ccc(C2=NN(C(=O)N[C@H](C)c3cnc(C(F)(F)F)nc3)C[C@@H]2N2CCN(C)C2=O)cc1` [Compound 41] the value was over 30000 nM; for `Cc1ccc(C2=NN(C(=O)N[C@H](C)c3nc(C)no3)C[C@@H]2N2CCCC2=O)cc1` [Compound 45], over 30000 nM.

Usually IC50 stands for the concentration needed to halve the response being measured.
